Source: patent publication US5612363A, “N,N-di(aryl) cyclic urea derivatives as anti-coagulants” (Berlex Laboratories, Inc., priority 1995, dated 1997)
Residues, ends and D or L forms follow the SMILES beside them.

How the values were obtained:
Human thrombin = biological target: T1, Human thrombin (Homo sapiens, UniProt P00734); assay: In vitro chromogenic assay for thrombin (S2302 cleavage); assay type: biochemical; conditions: assay buffer pH 7.5, ambient temperature; read-out: Km (substrate concentration equal to Km)
T1 construct: Human thrombin stock solution; purchased Enzyme Research Lab
Description: (§1) The activities were determined as an initial rate of cleavage of the peptide p-nitroanilide by the enzyme. The cleavage product, p-nitroaniline, absorbs at 405 nm with a molar extinction coefficient of 9920M^-1 cm^-1.
(§2) 50 mM TrisHCl, 150 mM NaCl, 2.5 mM CaCl2, and 0.1% polyethylene glycol 6000, pH 7.5.
2. Human thrombin stock solution: Stored at -80° C. (working solution (2×): 1200 ng/mL or 40 nM in assay buffer, prepare prior to use).
1. S2222 (FXa assay) stock solution: 6 mM in dH2 O, store at 4° C. (working solution (4×): 656 μM in assay buffer). p1 2. S2302 (Thrombin assay) stock solution: 10 mM in dH2 O, stored at 4° C. (working solution (4×): 1200 μM in assay buffer).
Assays were performed in 96-well microtiter plates in a total volume of 200 μl. […] Concentrations of the standard inhibitor compound in the assay were from 5 μM to 0.021 μM in 1 to 3 dilution. Concentration of the test compounds in the assay typically were from 10 μM to 0.041 μM in 1 to 3 dilution. […]
(§3) The enzyme kinetics were measured at 405 nm, at 10 seconds interval, for five minutes in a THERMOmax plate reader at ambient temperature.
Enzyme rates were calculated as mOD/min based on the first two minutes readings. The IC50 values were determined by fitting the data to the log-logit equation (linear) or the Morrison equation (non-linear) with an EXCEL spread-sheet. […]

[1] = biological target: T2, Human tissue plasminogen activator (tPA) (Two chains, Sigma) (Homo sapiens, UniProt P00750); assay: In vitro chromogenic assay for tissue plasminogen activator (S2288 cleavage); assay type: biochemical; conditions: assay buffer pH 7.5, ambient temperature; read-out: Km (substrate concentration equal to Km)
T2 construct: (tPA) (Two chains, Sigma); purchased Sigma
Description: as §1, §2
3. Human tissue plasminogen activator (tPA) (Two chains, Sigma) stock solution: 1 mg/mL, stored at -80° C. (working solution (2×): 1361 ng/mL in assay buffer, prepare prior to use).
3. S2288 (tPA assay) stock solution: 10 mM in dH2 O, stored at 4° C. (working solution (4×): 1484 μM in assay buffer). (All substrate working solutions were prepared on assay […].)
Assays were performed in 96-well microtiter plates in a total volume of 200 μl. […] Concentrations of the standard inhibitor compound in the assay were from 5 μM to 0.021 μM in 1 to 3 dilution. Concentration of the test compounds in the assay typically were from 10 μM to 0.041 μM in 1 to 3 dilution. For potent test compounds, the concentrations used in the factor Xa assay were further diluted 100 fold (100 nM to 0.41 nM) or 1000 fold (10 nM to 0.041 nM). All substrate concentrations used are equal to their Km values under the present assay conditions. Assays were performed at ambient temperature. […]
as §3

T2 sequence (P00750 311-562 limits assumed): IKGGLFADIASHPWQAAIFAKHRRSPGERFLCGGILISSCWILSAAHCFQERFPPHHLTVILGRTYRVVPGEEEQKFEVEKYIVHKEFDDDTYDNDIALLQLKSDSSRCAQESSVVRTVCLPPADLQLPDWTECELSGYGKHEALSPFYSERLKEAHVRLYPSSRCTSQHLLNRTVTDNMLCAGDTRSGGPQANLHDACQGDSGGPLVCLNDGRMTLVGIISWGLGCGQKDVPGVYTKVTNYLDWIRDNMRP
T2 sequence (P00750 36-310 partner limits assumed): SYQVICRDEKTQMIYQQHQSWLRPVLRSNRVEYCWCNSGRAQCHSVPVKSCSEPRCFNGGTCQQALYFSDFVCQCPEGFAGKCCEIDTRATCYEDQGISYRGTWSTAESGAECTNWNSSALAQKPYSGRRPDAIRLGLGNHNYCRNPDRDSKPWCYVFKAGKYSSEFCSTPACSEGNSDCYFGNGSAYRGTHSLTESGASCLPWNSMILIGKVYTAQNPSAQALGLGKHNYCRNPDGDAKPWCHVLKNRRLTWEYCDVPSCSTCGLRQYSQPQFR

`N=C(N)NCCC[C@H](NC(=O)[C@H](Cc1ccccc1)NC(=O)[C@H]1CCCN1)C(=O)Nc1ccc([N+](=O)[O-])cc1` [Example S2302] (HELM PEPTIDE1{[dP].F.R.[O=[N+]([O-])c1ccc(N[*:1])cc1]}$$$$V2.0) gave a Km (Human thrombin) of 300 µM.

Compound `CC[C@@H](C)[C@@H](N)C(=O)N1CCC[C@H]1C(=O)N[C@@H](CCCN=C(N)N)C(=O)Nc1ccc([N+](=O)[O-])cc1` [Example S2288] (HELM PEPTIDE1{[dI].P.R.[O=[N+]([O-])c1ccc(N[*:1])cc1]}$$$$V2.0) has a Km [1] of 371 µM.
